Paper PMC4556473 (British Journal of Pharmacology, 2015)

Experiments:
[1] = molecular target: T1, WT mSlo3 (KCa5.1) channels (Mus musculus, UniProt O54982); test: Two-electrode voltage clamp of WT mSlo3 currents in Xenopus oocytes; format: cell-based; settings: for inhibition of WT mSlo3 current: pulses to +100 mV
T1 construct: Full-length WT, R196Q and F304Y mSlo3 K^+ channel subunits were expressed in Xenopus oocytes; expressed in transfected cells; host or cells: Xenopus laevis oocytes injected with in vitro transcribed capped mRNA (pBF vector)
T1 sequence (O54982 1-1121): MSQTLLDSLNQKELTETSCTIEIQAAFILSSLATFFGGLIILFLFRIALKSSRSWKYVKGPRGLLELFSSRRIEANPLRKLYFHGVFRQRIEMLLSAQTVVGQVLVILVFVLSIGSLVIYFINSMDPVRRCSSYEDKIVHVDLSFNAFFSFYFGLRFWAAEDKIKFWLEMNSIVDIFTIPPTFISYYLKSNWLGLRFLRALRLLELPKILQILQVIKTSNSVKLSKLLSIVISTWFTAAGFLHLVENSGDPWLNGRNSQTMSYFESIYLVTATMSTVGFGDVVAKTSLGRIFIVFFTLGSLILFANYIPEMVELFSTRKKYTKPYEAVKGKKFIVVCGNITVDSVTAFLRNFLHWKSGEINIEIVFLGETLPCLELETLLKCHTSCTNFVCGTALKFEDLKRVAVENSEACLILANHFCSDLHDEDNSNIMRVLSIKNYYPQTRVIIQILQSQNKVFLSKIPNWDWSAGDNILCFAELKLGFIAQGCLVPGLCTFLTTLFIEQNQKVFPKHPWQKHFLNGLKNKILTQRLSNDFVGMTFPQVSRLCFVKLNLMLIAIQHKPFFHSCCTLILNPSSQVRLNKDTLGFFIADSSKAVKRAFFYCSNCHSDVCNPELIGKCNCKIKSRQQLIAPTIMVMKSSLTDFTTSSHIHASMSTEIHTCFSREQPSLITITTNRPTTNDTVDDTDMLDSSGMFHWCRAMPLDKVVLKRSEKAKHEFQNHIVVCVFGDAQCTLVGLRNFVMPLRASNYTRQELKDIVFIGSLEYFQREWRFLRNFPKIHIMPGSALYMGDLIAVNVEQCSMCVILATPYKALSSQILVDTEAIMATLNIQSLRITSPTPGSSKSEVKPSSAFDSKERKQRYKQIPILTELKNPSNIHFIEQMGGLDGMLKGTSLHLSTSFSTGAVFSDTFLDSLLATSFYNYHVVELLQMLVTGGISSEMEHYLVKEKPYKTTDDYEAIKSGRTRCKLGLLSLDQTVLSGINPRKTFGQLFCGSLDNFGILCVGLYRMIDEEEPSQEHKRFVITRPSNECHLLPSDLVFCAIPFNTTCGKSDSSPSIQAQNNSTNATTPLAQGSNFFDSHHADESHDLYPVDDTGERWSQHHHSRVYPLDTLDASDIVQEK
Method: A plasmid containing the full-length mSlo3 sequence was a gift from Dr L. Salkoff (Washington University School of Medicine) and the open-reading frame was subcloned into pBF (Baukrowitz et al., [1999]), a vector optimized for in vitro mRNA synthesis and Xenopus oocyte expression. […] The […] and […] mutations were introduced by Quikchange site-directed mutagenesis (Agilent Technologies, Stockport, UK) and confirmed by automated sequencing. In vitro transcription was carried out using the mMessage mMachine SP6 kit (Ambion, Huntingdon, UK) to produce capped mRNA. Individual oocytes were obtained from humanely killed female Xenopus laevis toads (housed either at the University of Leeds, UK or from the European Xenopus Resource Centre, University of Portsmouth, UK) and were injected with 10-50 ng RNA in a 40 nL volume. […] The volume of the bath was 0.5 mL, which was perfused at a rate of approximately 1 mL·min^-1. 100 mM K^+ solution was made by an equimolar replacement of NaCl with KCl. Data were analysed with […], OriginPro 7.5 (Originlab, Northampton, MA, USA), and GraphPad Prism 6 software (GraphPad Software, San Diego, CA, USA). […] Data are presented as the mean ± SEM of n individual oocytes and statistical significance tested using Student's t-test, ANOVA (with Bonferroni post hoc comparison of means), or by Kruskal-Wallis test (with Dunn's post hoc comparison) as indicated in the Results.

F304Y mSlo3 = F304Y mSlo3 (Mus musculus, UniProt O54982, F304Y); test: Two-electrode voltage clamp of F304Y mSlo3 currents in Xenopus oocytes; format: cell-based; settings: +100 mV
Method: A plasmid containing the full-length mSlo3 sequence was a gift from Dr L. Salkoff (Washington University School of Medicine) and the open-reading frame was subcloned into pBF (Baukrowitz et al., [1999]), a vector optimized for in vitro mRNA synthesis and Xenopus oocyte expression. […] The […] and […] mutations were introduced by Quikchange site-directed mutagenesis (Agilent Technologies, Stockport, UK) and confirmed by automated sequencing. In vitro transcription was carried out using the mMessage mMachine SP6 kit (Ambion, Huntingdon, UK) to produce capped mRNA. Individual oocytes were obtained from humanely killed female Xenopus laevis toads (housed either at the University of Leeds, UK or from the European Xenopus Resource Centre, University of Portsmouth, UK) and were injected with 10-50 ng RNA in a 40 nL volume. […] The volume of the bath was 0.5 mL, which was perfused at a rate of approximately 1 mL·min^-1. 100 mM K^+ solution was made by an equimolar replacement of NaCl with KCl. Data were analysed with […], OriginPro 7.5 (Originlab, Northampton, MA, USA), and GraphPad Prism 6 software (GraphPad Software, San Diego, CA, USA). […]

Sequence of F304Y mSlo3 (O54982 whole entry F304Y): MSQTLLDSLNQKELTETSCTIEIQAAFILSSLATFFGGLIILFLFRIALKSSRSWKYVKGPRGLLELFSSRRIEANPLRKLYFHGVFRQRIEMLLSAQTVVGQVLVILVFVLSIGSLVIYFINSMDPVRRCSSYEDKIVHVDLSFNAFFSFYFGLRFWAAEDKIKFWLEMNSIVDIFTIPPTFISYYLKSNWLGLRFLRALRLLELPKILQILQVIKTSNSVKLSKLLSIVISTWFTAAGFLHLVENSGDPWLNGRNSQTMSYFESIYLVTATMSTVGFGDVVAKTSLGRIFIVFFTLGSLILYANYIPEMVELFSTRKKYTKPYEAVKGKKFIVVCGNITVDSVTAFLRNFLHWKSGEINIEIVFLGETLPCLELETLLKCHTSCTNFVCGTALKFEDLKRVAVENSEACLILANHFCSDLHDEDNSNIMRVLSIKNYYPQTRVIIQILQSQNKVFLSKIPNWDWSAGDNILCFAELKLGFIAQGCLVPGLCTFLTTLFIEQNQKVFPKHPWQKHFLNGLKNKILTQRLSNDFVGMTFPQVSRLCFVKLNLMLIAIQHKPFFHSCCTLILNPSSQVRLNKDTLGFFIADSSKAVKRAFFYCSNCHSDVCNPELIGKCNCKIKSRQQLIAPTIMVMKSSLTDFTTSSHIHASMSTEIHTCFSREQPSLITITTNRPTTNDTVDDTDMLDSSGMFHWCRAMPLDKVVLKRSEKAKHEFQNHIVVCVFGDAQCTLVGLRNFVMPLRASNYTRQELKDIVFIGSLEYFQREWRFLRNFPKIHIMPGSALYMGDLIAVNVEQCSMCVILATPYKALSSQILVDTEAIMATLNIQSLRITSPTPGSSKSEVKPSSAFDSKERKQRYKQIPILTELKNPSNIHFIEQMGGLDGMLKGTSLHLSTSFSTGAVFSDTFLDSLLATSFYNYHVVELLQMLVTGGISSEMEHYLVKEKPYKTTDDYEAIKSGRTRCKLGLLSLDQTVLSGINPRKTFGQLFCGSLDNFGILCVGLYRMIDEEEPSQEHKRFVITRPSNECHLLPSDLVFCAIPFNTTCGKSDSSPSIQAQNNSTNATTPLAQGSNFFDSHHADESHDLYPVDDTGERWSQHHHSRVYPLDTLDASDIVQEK

CC[N+](CC)(CC)CC.[Cl-] [TEA^+, tetraethlyammonium chloride]
inhibition of WT mSlo3 current ([1]; 20 mM): weakly inhibited

[Ba+2].[Cl-].[Cl-] [Ba^2+, barium chloride]
Hill slope of inhibition of F304Y mSlo3 currents (F304Y mSlo3): 1.05 ± 0.12
IC50 (F304Y mSlo3; Xenopus oocytes, read-out: IC50 of inhibition of F304Y mSlo3 currents): 525 ± 97 µM
inhibition of WT mSlo3 current ([1]; 2 mM, 2.5 mM extracellular K+): strongly inhibited
inhibition of WT mSlo3 current in high extracellular K+ ([1]; 2 mM, extracellular K+ raised to 100 mM): prevented
Hill slope of inhibition of WT mSlo3 currents ([1]; +100 mV): 0.88 ± 0.11
IC50 ([1]; currents evoked by voltage pulses to +100 mV, Xenopus oocytes, 2.5 mM K+ Ringer's pH 8, read-out: IC50 of inhibition of WT mSlo3 currents): 646 ± 100 µM

CCCCCCC[N+](CC)(CC)CCCCc1ccc(Cl)cc1 [clofilium]
inhibition of WT mSlo3 current ([1]; 50 μM): more strongly inhibited

COCC(=O)O[C@]1(CCN(C)CCCc2nc3ccccc3[nH]2)CCc2cc(F)ccc2[C@@H]1C(C)C [mibefridil, mibefradil]
inhibition of WT mSlo3 current ([1]; 5 μM): weakly inhibited
